Measurements from ChEMBL document CHEMBL1201862, “PubChem BioAssay data set” (2004).
Blank lines part the entries; values can stand above or below the compound they belong to. The source made the active and inactive calls.

Key:
[1] = molecular target: T1, Corticotropin-releasing factor receptor 2/Corticotropin-releasing factor-binding protein (Homo sapiens, UniProt P24387+Q13324); experiment: activators of CRF receptor 2 with binding protein – uHTS hits, confirmation (AID 602473); assay type: functional; conditions: read-out: EC50_Mean
T1 sequence (Q13324 whole entry): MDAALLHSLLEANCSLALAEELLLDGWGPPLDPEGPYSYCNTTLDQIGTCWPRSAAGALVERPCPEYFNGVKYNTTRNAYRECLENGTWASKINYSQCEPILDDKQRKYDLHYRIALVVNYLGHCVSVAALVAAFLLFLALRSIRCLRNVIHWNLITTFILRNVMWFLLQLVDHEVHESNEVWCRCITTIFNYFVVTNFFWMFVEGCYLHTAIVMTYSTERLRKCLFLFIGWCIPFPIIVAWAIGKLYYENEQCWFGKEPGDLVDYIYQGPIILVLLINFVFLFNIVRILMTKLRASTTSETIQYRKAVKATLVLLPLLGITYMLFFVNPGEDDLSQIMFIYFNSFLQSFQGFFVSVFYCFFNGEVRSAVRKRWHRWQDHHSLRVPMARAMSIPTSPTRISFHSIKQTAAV
T1 sequence (P24387 whole entry): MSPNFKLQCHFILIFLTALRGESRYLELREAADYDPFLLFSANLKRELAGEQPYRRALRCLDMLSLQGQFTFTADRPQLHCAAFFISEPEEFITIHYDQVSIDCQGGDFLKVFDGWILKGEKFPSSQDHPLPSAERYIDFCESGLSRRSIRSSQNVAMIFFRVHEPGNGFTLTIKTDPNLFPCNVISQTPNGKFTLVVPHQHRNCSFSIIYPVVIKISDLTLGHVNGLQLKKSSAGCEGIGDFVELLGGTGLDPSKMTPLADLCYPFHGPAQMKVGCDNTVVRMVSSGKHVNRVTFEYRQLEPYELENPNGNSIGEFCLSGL

[2] = molecular target: Solute carrier family 12 member 2/member 5 (Homo sapiens, UniProt P55011+Q9H2X9); experiment: KCC2 and NKCC1 inhibition by rubidium flux, cell-based, NKCC1 counter-screen (AID 1734); assay type: functional, HEK293
[3] = molecular target: T1, Corticotropin-releasing factor receptor 2/Corticotropin-releasing factor-binding protein; experiment: Dose Response confirmation of uHTS hits for small molecule antagonists of the CRF-binding protein and CRF-R2 receptor complex.; assay type: functional; conditions: read-out: IC50_Mean
[4] = C. albicans growth with fluconazole, confirmation, fluorescence, retest (AID 2467); assay type: functional, cell-based
[5] = HepG2 cell cytotoxicity, dose response, cytotoxicity control for Shn3 inhibitor project, CellTiter-Glo, cherry-picked (AID 624134); assay type: functional, cell-based
[6] = NIH-3T3 fibroblast cytotoxicity, dose response, cytotoxicity control, cell-based, fluorescence, Alamar Blue, secondary assay (AID 2327); assay type: functional;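 further: NIH-3T3 mouse fibroblasts cultured with fluconazole at 8 µg/mL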
[7] = Shn3 3'UTR reporter inhibitors, dose response, cell-based, Clone20 osteoblasts, firefly luciferase, cherry-picked (AID 624132); assay type: functional;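 further: firefly luciferase luminescence from reporter carrying the Shn3 3'UTR in osteoblasts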
[8] = cytotoxicity in HEK-293T cells, dose response, cytotoxicity control for BCR NF-kB inhibitor project, luminescence, B-cell screen hits (AID 489021); assay type: functional, cell-based;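 further: HEK-293T cells carrying an NF-kB luciferase reporter; cells exposed to compound for about 14 hours before viability readout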
INS1 = experiment: beta cell apoptosis inhibitors, cytokine rescue, dose response, luminescence, retest (AID 449756); assay type: functional, cell-based; conditions: Rattus norvegicus;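 further: cell death triggered by IL-1 beta plus TNF-alpha plus IFN-gamma mixture; protective hits raise ATP signal compared with cytokine alone wells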
Galanin receptor type 2 = Galanin receptor type 2 (Homo sapiens, UniProt O43603); experiment: Dose Response cell-based high-throughput screening assay to identify antagonists of galanin receptor 2 (GALR2). [Related pubchem assays: 828, 866 ]; assay type: functional
Chain of Galanin receptor type 2 (O43603 whole entry): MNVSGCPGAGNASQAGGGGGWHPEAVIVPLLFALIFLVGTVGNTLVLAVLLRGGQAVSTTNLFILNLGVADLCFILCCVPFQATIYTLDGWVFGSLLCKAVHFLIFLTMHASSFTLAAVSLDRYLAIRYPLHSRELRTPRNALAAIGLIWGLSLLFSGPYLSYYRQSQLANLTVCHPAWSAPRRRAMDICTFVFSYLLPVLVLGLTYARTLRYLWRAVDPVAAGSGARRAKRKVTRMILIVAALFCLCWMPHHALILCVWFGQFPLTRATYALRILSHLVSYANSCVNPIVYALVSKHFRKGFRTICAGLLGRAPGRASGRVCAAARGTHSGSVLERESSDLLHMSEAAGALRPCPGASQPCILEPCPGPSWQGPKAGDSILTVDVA

[9] = molecular target: COUP transcription factor 2 (Homo sapiens, UniProt P24468); experiment: Luminescence-based cell-based high throughput dose response assay to identify inhibitors of COUP-TFII (NR2F2).; assay type: functional;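 further: HEK293 cells transiently cotransfected with COUP-TFII expression vector and reporter; luciferase reporter luminescence driven by COUP-TFII from the pX2-168 reporter plasmid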
Chain of COUP transcription factor 2 (P24468 whole entry): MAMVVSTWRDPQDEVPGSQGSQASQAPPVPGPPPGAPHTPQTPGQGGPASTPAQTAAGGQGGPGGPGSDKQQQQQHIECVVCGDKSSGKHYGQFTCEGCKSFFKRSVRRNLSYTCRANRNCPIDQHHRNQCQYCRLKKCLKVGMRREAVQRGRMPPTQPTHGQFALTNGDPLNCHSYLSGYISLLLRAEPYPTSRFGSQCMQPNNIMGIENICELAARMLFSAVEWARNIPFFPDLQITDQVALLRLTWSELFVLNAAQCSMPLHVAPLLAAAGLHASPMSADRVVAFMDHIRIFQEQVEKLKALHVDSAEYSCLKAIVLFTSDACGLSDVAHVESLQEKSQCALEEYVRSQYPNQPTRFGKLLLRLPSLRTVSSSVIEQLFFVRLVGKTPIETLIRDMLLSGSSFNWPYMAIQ

[10] = control 3'UTR Renilla luciferase suppression, dose response, counter-screen for Shn3 inhibitor project, cell-based, Clone20-Shn3RL, cherry-picked (AID 624133); assay type: functional
[11] = cytotoxicity in L-6 rat myocytes, dose response, cytotoxicity control, cell-based, plate reader, cherry-pick (AID 651896); assay type: functional
[12] = Inhibition of T. cruzi Tulahuen strain amastigotes in L-6 muscle cells Measured in Cell-Based and Microorganism Combination System Using Plate Reader - 2138-03_Inhibitor_Dose_CherryPick_Activity.; assay type: functional; conditions: Rattus norvegicus, L6
[13] = T. cruzi intracellular amastigote growth inhibition, dose response, imaging, CA-I/72 strain, bovine embryo skeletal muscle, dry powder (AID 651885); assay type: functional, cell-based
[14] = growth inhibition of intracellular T. cruzi, dose response, cell-based, plate reader, dry powder samples (AID 651845); assay type: functional
[15] = T. b. rhodesiense proliferation inhibition, dose response, STIB900 strain, plate reader, cherry pick (AID 651893); assay type: functional, cell-based; conditions: Trypanosoma brucei
[16] = L. donovani amastigote growth inhibition, dose response, axenic amastigotes, plate reader, cherry pick (AID 651891); assay type: functional, cell-based; conditions: Leishmania donovani
[17] = NIH/3T3 fibroblast cytotoxicity, dose response, cytotoxicity control for T. cruzi growth inhibitor project, cell-based, cherry-pick samples, set 2 (AID 651817); assay type: functional; conditions: NIH3T3
[18] = intracellular Trypanosoma cruzi inhibitors in host cells – cell-based, plate reader, cherry-pick samples, set 3, dose response (AID 651818); assay type: functional;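 further: compounds incubated with infected cells for about four days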
[19] = Inhibition of Plasmodium falciparum NF54 Measured in Cell-Based System Using Plate Reader - 2138-11_Inhibitor_Dose_CherryPick_Activity.; assay type: functional
[20] = T. cruzi growth inhibition in host cells, dose response, cell-based, plate reader, dry powder, set 2 (AID 652275); assay type: functional
[21] = molecular target: NAD-dependent protein deacylase sirtuin-5, mitochondrial (Homo sapiens, UniProt Q9NXA8); experiment: SIRT5 deacylase inhibitors, dose response, biochemical, fluorescence imaging, cherry-pick, set 6 (AID 720597)
Chain of NAD-dependent protein deacylase sirtuin-5, mitochondrial (Q9NXA8 whole entry): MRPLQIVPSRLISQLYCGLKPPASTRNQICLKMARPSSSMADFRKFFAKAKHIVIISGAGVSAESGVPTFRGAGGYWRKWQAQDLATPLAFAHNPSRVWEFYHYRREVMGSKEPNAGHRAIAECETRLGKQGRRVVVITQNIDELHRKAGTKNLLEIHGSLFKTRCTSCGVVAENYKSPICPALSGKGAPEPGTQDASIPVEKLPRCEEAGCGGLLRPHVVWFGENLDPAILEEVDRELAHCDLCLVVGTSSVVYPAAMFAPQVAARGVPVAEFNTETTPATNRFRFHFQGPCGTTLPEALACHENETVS

Paired box protein Pax-8 = Paired box protein Pax-8 (Homo sapiens, UniProt Q06710); experiment: inhibitors of PAX8-driven TPO luciferase reporter, dose response, RMG-I cells, cherry-pick (AID 687027); assay type: functional, cell-based;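 further: luciferase reporter driven by Pax8 target thyroperoxidase promoter measured by SteadyGlo luminescence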
Chain of Paired box protein Pax-8 (Q06710 whole entry): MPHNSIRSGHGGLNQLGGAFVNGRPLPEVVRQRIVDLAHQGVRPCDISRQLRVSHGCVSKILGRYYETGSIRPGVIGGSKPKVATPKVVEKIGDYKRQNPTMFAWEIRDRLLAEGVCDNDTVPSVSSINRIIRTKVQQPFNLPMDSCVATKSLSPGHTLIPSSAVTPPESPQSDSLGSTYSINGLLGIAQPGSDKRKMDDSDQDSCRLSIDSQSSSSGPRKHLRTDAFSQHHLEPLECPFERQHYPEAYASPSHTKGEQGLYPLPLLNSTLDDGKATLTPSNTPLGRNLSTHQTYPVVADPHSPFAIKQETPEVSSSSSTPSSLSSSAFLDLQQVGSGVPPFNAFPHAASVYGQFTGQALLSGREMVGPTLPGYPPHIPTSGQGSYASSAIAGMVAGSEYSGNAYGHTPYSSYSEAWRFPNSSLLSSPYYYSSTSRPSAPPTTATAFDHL

Estrogen receptor beta = Estrogen receptor beta (Homo sapiens, UniProt Q92731);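 further: recombinant ER-beta bound to coactivator SRC1 peptide in presence of estradiol agonist; inhibitors block coactivator peptide binding and lower the FRET signal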
Chain of Estrogen receptor beta (Q92731 whole entry): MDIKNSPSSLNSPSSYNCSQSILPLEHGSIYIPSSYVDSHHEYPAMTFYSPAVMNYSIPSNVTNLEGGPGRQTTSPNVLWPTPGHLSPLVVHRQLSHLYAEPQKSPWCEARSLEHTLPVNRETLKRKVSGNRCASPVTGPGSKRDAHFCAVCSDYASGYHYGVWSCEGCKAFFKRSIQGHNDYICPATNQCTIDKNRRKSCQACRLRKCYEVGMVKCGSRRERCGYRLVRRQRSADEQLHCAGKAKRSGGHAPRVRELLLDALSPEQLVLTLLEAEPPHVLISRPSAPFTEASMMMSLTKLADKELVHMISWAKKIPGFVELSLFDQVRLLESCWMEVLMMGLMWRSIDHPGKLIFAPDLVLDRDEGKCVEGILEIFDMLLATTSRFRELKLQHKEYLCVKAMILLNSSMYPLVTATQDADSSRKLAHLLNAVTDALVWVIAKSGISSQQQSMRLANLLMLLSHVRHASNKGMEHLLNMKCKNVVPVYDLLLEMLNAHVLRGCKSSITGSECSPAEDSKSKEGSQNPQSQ

[22] = Mtb BioA inhibitors by displacement, dose response, biochemical, coupled fluorescence displacement, 20-point, dry powder (AID 743357); assay type: functional
[23] = P. falciparum Dd2 growth inhibitors, dose response, SYBR Green, cherry-picked samples (AID 1159567); assay type: functional, cell-based
[24] = HepG2 cell cytotoxicity, dose response, cytotoxicity control, cherry-picked samples (AID 1159577); assay type: functional, cell-based
[25] = molecular target: G-protein coupled receptor 183 (Homo sapiens, UniProt P32249); experiment: SAR confirmation of small molecule antagonists of the EBI2 receptor via a luminescent beta-arrestin assa.; assay type: functional
Chain of G-protein coupled receptor 183 (P32249 whole entry): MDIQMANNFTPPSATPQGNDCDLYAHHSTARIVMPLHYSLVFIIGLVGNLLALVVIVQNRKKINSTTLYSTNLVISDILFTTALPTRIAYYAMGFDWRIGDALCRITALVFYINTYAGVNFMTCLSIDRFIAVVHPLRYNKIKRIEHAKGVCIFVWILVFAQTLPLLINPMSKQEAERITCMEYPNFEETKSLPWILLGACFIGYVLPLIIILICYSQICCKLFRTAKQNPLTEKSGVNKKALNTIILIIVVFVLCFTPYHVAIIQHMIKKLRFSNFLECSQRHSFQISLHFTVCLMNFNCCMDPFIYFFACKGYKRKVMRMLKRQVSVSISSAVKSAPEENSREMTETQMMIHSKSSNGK

Cytochrome P450 2C19 = Cytochrome P450 2C19 (Homo sapiens, UniProt P33261); experiment: qHTS Assay for Inhibitors and Substrates of Cytochrome P450 2C19. [Related pubchem assays: 410 ]; assay type: ADME; conditions: read-out: Potency
Chain of Cytochrome P450 2C19 (P33261 whole entry): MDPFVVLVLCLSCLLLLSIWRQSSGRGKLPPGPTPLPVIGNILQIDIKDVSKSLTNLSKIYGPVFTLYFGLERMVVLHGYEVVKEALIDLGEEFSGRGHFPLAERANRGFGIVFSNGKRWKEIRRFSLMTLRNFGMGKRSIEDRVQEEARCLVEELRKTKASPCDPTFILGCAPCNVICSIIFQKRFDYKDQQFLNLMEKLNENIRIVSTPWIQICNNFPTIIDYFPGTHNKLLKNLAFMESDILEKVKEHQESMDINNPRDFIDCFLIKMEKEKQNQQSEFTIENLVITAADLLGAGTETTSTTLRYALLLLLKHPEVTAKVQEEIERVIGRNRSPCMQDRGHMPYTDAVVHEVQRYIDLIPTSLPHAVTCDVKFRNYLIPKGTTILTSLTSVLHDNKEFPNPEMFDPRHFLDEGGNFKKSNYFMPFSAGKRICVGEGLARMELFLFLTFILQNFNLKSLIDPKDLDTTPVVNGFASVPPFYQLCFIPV

EC50 [1]: > 53 µM (inactive) | IC50 [2]: 2.2 µM (active) | IC50 [3]: > 47.1 µM (inactive)
SMILES: O=C(NCCOc1ccccc1F)c1ccccc1SCc1ccc(F)cc1

SMILES: Cc1ccc(S(=O)(=O)CC2CSc3nc4ccccc4n32)cc1 (stereo not given)
EC50 [4]: 1.15 µM (active) | AC50 [5]: 592 nM (active) | EC50 [6]: > 160 µM (inactive) | AC50 [7]: 347 nM (active) | IC50 [8]: > 80 µM (inactive) | AC50 (INS1): 3.55 µM (active) | IC50 (Galanin receptor type 2): > 42 µM (not active) | IC50 [9]: 4.21 µM (active) | AC50 [10]: 24.4 µM (active)

SMILES: C[C@H]1CN([C@@H](C)CO)C(=O)c2cccc(NC(=O)c3ccncc3)c2O[C@@H]1CN(C)Cc1ccc(C(F)(F)F)cc1
IC50 [11]: 45.5 µM (inactive) | IC50 [12]: 2.95 µM (inactive) | IC50 [13]: 6.01 nM (active) | AC50 [14]: 12.7 nM (active) | IC50 [15]: 3.49 µM (inactive) | IC50 [16]: 16.3 µM (inactive) | AC50 [17]: 39 µM (inactive) | AC50 [18]: 304 nM (active) | IC50 [19]: 2.95 µM (inactive) | AC50 [20]: 12.7 nM (active)

AC50 [21]: > 30 µM (inactive) | AC50 (Paired box protein Pax-8): 7.27 µM (active)
SMILES: Cc1ccc(S(=O)(=O)N(C)C[C@@H]2OCCCC[C@H](C)Oc3ccc(NS(=O)(=O)c4ccc(Cl)cc4)cc3C(=O)N([C@H](C)CO)C[C@H]2C)cc1

IC50 (Estrogen receptor beta): > 50 µM (not active)
SMILES: CCCCCCN/C=C1\C(=O)CC(C)(C)C(C(=O)OC)C1=O (stereo not given)

SMILES: CN1c2ccc(-c3cccc(F)c3)cc2[C@H]2[C@H](CCN2C(=O)CCCCCCC(=O)O)[C@H]1CO
AC50 [22]: 16.7 µM (active)

SMILES: COc1ccccc1NC(=O)N1CCCCN2[C@@H](CO)[C@@H](c3ccc(C#CC4CC4)cc3)[C@@H]2C1
AC50 [23]: 1.03 µM (active) | AC50 [24]: 9.69 µM (active)

IC50 [25]: 1.5 nM (active)
SMILES: Cc1cc(CN2CCN(C(=O)/C=C/c3ccc(Br)cc3)CC2)ccc1F

AC50 (Cytochrome P450 2C19): 7.94 µM (inconclusive)
SMILES: CCCn1c(=O)[nH]c2nc(-c3ccc(S(=O)(=O)O)cc3)[nH]c2c1=O
